Measurements from the supplement of paper PMC10733146.

Key:
Experiment in all cases: viability relative to DMSO control (fraction); higher = less drug effect (more viable cells)
Conditions in all cases: 48 h
Pralatrexate = compound: C#CCC(Cc1cnc2nc(N)nc(N)c2n1)c1ccc(C(=O)N[C@@H](CCC(=O)O)C(=O)O)cc1 [Pralatrexate]
How it was run: (§1)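 The cells were primary mononuclear tumour cells, either fresh or cryopreserved, isolated by Ficoll from blood or bone marrow or derived from processed lymph node. Each well of a 384-well plate received 4 × 10^4 cells onto compounds pre-plated at five concentrations, with one well per concentration. The medium was RPMI-1640 with penicillin/streptomycin, L-glutamine and human serum, and plates stood at 37 °C and 5% CO2 for 48 h. Viability is reported as CellTiter-Glo luminescence relative to the median of 16 inner DMSO wells.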

8-Azaguanin = compound: Nc1nc2n[nH]nc2c(=O)[nH]1 [8-Azaguanin]
How it was run: as §1

Cladribine = compound: Nc1nc(Cl)nc2c1ncn2[C@H]1C[C@H](O)[C@@H](CO)O1 [Cladribine]
How it was run: as §1

Ribociclib = compound: CN(C)C(=O)c1cc2cnc(Nc3ccc(N4CCNCC4)cn3)nc2n1C1CCCC1 [Ribociclib]
How it was run: as §1

ERK5-IN-1 = compound: CCOc1cc(C(=O)N2CCC(N3CCN(C)CC3)CC2)ccc1Nc1ncc2c(n1)N(C1CCCC1)c1ccccc1C(=O)N2C [ERK5-IN-1]
How it was run: as §1

Iniparib = compound: NC(=O)c1ccc(I)c([N+](=O)[O-])c1 [Iniparib]
How it was run: as §1

BI6727 = compound: CC[C@@H]1C(=O)N(C)c2cnc(Nc3ccc(C(=O)N[C@H]4CC[C@H](N5CCN(CC6CC6)CC5)CC4)cc3OC)nc2N1C(C)C [BI6727]
How it was run: as §1

BEZ235 = compound: Cn1c(=O)n(-c2ccc(C(C)(C)C#N)cc2)c2c3cc(-c4cnc5ccccc5c4)ccc3ncc21 [BEZ235]
How it was run: as §1

Carfilzomib = compound: CC(C)C[C@H](NC(=O)[C@H](CCc1ccccc1)NC(=O)CN1CCOCC1)C(=O)N[C@@H](Cc1ccccc1)C(=O)N[C@@H](CC(C)C)C(=O)[C@@]1(C)CO1 [Carfilzomib]
How it was run: as §1

Pacritinib = compound: C1=N/C2=N/c3ccc(OCCN4CCCC4)c(c3)COC/C=C/COCc3cccc(c3)C(=C1)N2 [Pacritinib]
How it was run: as §1

Idarubicin = compound: CC(=O)[C@]1(O)Cc2c(O)c3c(c(O)c2[C@@H](O[C@H]2C[C@H](N)[C@H](O)[C@H](C)O2)C1)C(=O)c1ccccc1C3=O [Idarubicin]
How it was run: as §1

Birinapant = compound: CC[C@H](NC(=O)[C@H](C)NC)C(=O)N1C[C@@H](O)C[C@H]1Cc1c(-c2[nH]c3cc(F)ccc3c2C[C@@H]2C[C@H](O)CN2C(=O)[C@H](CC)NC(=O)[C@H](C)NC)[nH]c2cc(F)ccc12 [Birinapant]
How it was run: as §1

Pentostatin = compound: OC[C@H]1O[C@@H](n2cnc3c2N=CNC[C@H]3O)C[C@@H]1O [Pentostatin]
How it was run: as §1

Rigosertib = compound: COc1cc(OC)c(/C=C/S(=O)(=O)Cc2ccc(OC)c(NCC(=O)O)c2)c(OC)c1 [Rigosertib]
How it was run: as §1

[1] = compound: OCc1ccc(-c2ccc(-c3ccc(CO)s3)o2)s1
How it was run: as §1

primary CLL patient cells (S043)
viability (Pralatrexate; 0.024 µM): 0.925
viability (Pralatrexate; 0.12 µM): 0.892
viability (Pralatrexate; 0.6 µM): 0.876
viability (Pralatrexate; 3 µM): 0.891
viability (Pralatrexate; 15 µM): 0.836
viability (8-Azaguanin; 0.032 µM): 1.14
viability (8-Azaguanin; 0.16 µM): 1.14
viability (8-Azaguanin; 0.8 µM): 0.971
viability (8-Azaguanin; 4 µM): 0.722
viability (8-Azaguanin; 20 µM): 0.49
viability (Cladribine; 0.024 µM): 0.922
viability (Cladribine; 0.12 µM): 0.665
viability (Cladribine; 0.6 µM): 0.519
viability (Cladribine; 3 µM): 0.393
viability (Cladribine; 15 µM): 0.31
viability (Ribociclib; 0.024 µM): 0.904
viability (Ribociclib; 0.12 µM): 1.1
viability (Ribociclib; 0.6 µM): 0.995
viability (Ribociclib; 3 µM): 0.933
viability (Ribociclib; 15 µM): 0.771
viability (ERK5-IN-1; 0.024 µM): 0.822
viability (ERK5-IN-1; 0.12 µM): 0.865
viability (ERK5-IN-1; 0.6 µM): 0.784
viability (ERK5-IN-1; 3 µM): 0.728
viability (ERK5-IN-1; 15 µM): 0.533
viability (Iniparib; 0.024 µM): 1.24
viability (Iniparib; 0.12 µM): 1.21
viability (Iniparib; 0.6 µM): 0.999
viability (Iniparib; 3 µM): 1.02
viability (Iniparib; 15 µM): 0.86
viability (BI6727; 0.024 µM): 0.861
viability (BI6727; 0.12 µM): 0.872
viability (BI6727; 0.6 µM): 0.796
viability (BI6727; 3 µM): 0.742
viability (BI6727; 15 µM): 0.51
viability (BEZ235; 0.024 µM): 1
viability (BEZ235; 0.12 µM): 1.01
viability (BEZ235; 0.6 µM): 0.985
viability (BEZ235; 3 µM): 1.03
viability (BEZ235; 15 µM): 0.594
viability (Carfilzomib; 0.00016 µM): 1.09
viability (Carfilzomib; 0.0008 µM): 0.553
viability (Carfilzomib; 0.004 µM): 0.0303
viability (Carfilzomib; 0.02 µM): 0.0208
viability (Carfilzomib; 0.1 µM): 0.0273
viability (Pacritinib; 0.024 µM): 0.995
viability (Pacritinib; 0.12 µM): 0.918
viability (Pacritinib; 0.6 µM): 0.763
viability (Pacritinib; 3 µM): 0.426
viability (Pacritinib; 15 µM): 0.025
viability (Idarubicin; 0.024 µM): 0.88
viability (Idarubicin; 0.12 µM): 0.236
viability (Idarubicin; 0.6 µM): 0.0477
viability (Idarubicin; 3 µM): 0.0213
viability (Idarubicin; 15 µM): 0.0214
viability (Birinapant; 0.0008 µM): 0.984
viability (Birinapant; 0.004 µM): 0.947
viability (Birinapant; 0.02 µM): 0.965
viability (Birinapant; 0.1 µM): 1.09
viability (Birinapant; 0.5 µM): 0.992
viability (Pentostatin; 0.03 µM): 0.974
viability (Pentostatin; 0.15 µM): 1.01
viability (Pentostatin; 0.75 µM): 0.969
viability (Pentostatin; 3.75 µM): 0.95
viability (Pentostatin; 18.76 µM): 0.86
viability (Rigosertib; 0.008 µM): 0.911
viability (Rigosertib; 0.04 µM): 0.919
viability (Rigosertib; 0.2 µM): 0.849
viability (Rigosertib; 1 µM): 0.905
viability (Rigosertib; 5 µM): 0.632
viability ([1]; 0.024 µM): 0.886
viability ([1]; 0.12 µM): 0.841
viability ([1]; 0.6 µM): 0.766
viability ([1]; 3 µM): 0.752
viability ([1]; 15 µM): 0.458

primary DLBCL patient cells (S082)
viability (Pralatrexate; 0.024 µM): 1.02
viability (Pralatrexate; 0.12 µM): 1.15
viability (Pralatrexate; 0.6 µM): 0.992
viability (Pralatrexate; 3 µM): 1.08
viability (Pralatrexate; 15 µM): 1.05
viability (8-Azaguanin; 0.032 µM): 1.01
viability (8-Azaguanin; 0.16 µM): 1.05
viability (8-Azaguanin; 0.8 µM): 0.976
viability (8-Azaguanin; 4 µM): 0.918
viability (8-Azaguanin; 20 µM): 0.531
viability (Cladribine; 0.024 µM): 0.858
viability (Cladribine; 0.12 µM): 0.613
viability (Cladribine; 0.6 µM): 0.476
viability (Cladribine; 3 µM): 0.442
viability (Cladribine; 15 µM): 0.399
viability (Ribociclib; 0.024 µM): 0.925
viability (Ribociclib; 0.12 µM): 0.946
viability (Ribociclib; 0.6 µM): 0.935
viability (Ribociclib; 3 µM): 0.938
viability (Ribociclib; 15 µM): 1.02
viability (ERK5-IN-1; 0.024 µM): 0.854
viability (ERK5-IN-1; 0.12 µM): 0.818
viability (ERK5-IN-1; 0.6 µM): 0.621
viability (ERK5-IN-1; 3 µM): 0.265
viability (ERK5-IN-1; 15 µM): 0.224
viability (Iniparib; 0.024 µM): 1.09
viability (Iniparib; 0.12 µM): 1.06
viability (Iniparib; 0.6 µM): 1.01
viability (Iniparib; 3 µM): 1.06
viability (Iniparib; 15 µM): 1.01
viability (BI6727; 0.024 µM): 0.916
viability (BI6727; 0.12 µM): 0.857
viability (BI6727; 0.6 µM): 0.623
viability (BI6727; 3 µM): 0.351
viability (BI6727; 15 µM): 0.256
viability (BEZ235; 0.024 µM): 0.931
viability (BEZ235; 0.12 µM): 1.05
viability (BEZ235; 0.6 µM): 0.958
viability (BEZ235; 3 µM): 1.07
viability (BEZ235; 15 µM): 0.737
viability (Carfilzomib; 0.00016 µM): 0.895
viability (Carfilzomib; 0.0008 µM): 1.01
viability (Carfilzomib; 0.004 µM): 0.0334
viability (Carfilzomib; 0.02 µM): 0.018
viability (Carfilzomib; 0.1 µM): 0.0218
viability (Pacritinib; 0.024 µM): 0.963
viability (Pacritinib; 0.12 µM): 0.972
viability (Pacritinib; 0.6 µM): 0.916
viability (Pacritinib; 3 µM): 0.543
viability (Pacritinib; 15 µM): 0.0168
viability (Idarubicin; 0.024 µM): 0.992
viability (Idarubicin; 0.12 µM): 0.622
viability (Idarubicin; 0.6 µM): 0.328
viability (Idarubicin; 3 µM): 0.0161
viability (Idarubicin; 15 µM): 0.0147
viability (Birinapant; 0.0008 µM): 0.923
viability (Birinapant; 0.004 µM): 1.04
viability (Birinapant; 0.02 µM): 1.12
viability (Birinapant; 0.1 µM): 1.09
viability (Birinapant; 0.5 µM): 1.06
viability (Pentostatin; 0.03 µM): 0.964
viability (Pentostatin; 0.15 µM): 0.887
viability (Pentostatin; 0.75 µM): 0.915
viability (Pentostatin; 3.75 µM): 0.825
viability (Pentostatin; 18.76 µM): 0.837
viability (Rigosertib; 0.008 µM): 0.954
viability (Rigosertib; 0.04 µM): 0.973
viability (Rigosertib; 0.2 µM): 0.931
viability (Rigosertib; 1 µM): 0.771
viability (Rigosertib; 5 µM): 0.524
viability ([1]; 0.024 µM): 0.929
viability ([1]; 0.12 µM): 1.02
viability ([1]; 0.6 µM): 0.84
viability ([1]; 3 µM): 0.904
viability ([1]; 15 µM): 0.622
